In patent publication US8906928B2, “Substituted pyrazolo-pyrrolo-pyridine-dione compounds” (ArQule, Inc., priority 2009, dated 2014):

Key:
Type in all cases: cell-based
[1] = system: Kato III; experiment: MTS assay (cell growth inhibition), Kato III; conditions: Kato III cells, 72 hours incubation with test compound; concentration not given
Method: (§1) Cells were maintained at 37° C., 5% CO2 in DMEM media supplemented with 1% fetal bovine serum, penicillin/streptomycin and fungizone (Invitrogen). Cells were seeded into 96-well tissue culture plates at 3000 per well and cultured at 37° C. for 18 hours. Test compounds were dissolved and diluted to 300× in DMSO then diluted 1:40 in DMEM. Cells were incubated with test compounds for 72 hours followed by incubation with tetrazolium compound (3-(4,5-dimethylthiazol-2-yl)-5-(3-carboxymethoxyphenyl)-2-(4-sulfophenyl)-2H-tetrazolium, inner salt; MTS) and the electron coupling reagent, phenazine methosulfate (PMS) for 4 hours. […] The ability of compounds to inhibit cell growth in this assay is correlated with the reduction of dehydrogenase enzyme activity found in metabolically active cells. The measurement of the absorbance of the formazan was assessed using an ENVISION™ (Perkin Elmer) microplate reader at 492 nm. The calculated IC50 value is the concentration of the test compound that causes a 50% decrease in the absorbance.

[2] = system: NCI-H1299; experiment: MTS assay (cell growth inhibition), NCI-H1299; conditions: NCI-H1299 cells, 72 hours incubation with test compound; concentration not given
Method: as §1

[3] = system: DLD-1; experiment: MTS assay (cell growth inhibition), DLD-1; conditions: DLD-1 cells, 72 hours incubation with test compound; concentration not given
Method: as §1

[4] = system: PACA-2; experiment: MTS assay (cell growth inhibition), PACA-2; conditions: PACA-2 cells, 72 hours incubation with test compound; concentration not given
Method: as §1

[5] = system: PC-3; experiment: MTS assay (cell growth inhibition), PC-3; conditions: PC-3 cells, 72 hours incubation with test compound; concentration not given
Method: as §1

[6] = system: MDA-MB; experiment: MTS assay (cell growth inhibition), MDA-MB; conditions: MDA-MB cells, 72 hours incubation with test compound; concentration not given
Method: as §1

| SMILES | MTS CELL KILL DATA (% INHIBITION) Kato III [1] | MTS CELL KILL DATA (% INHIBITION) NCI-H1299 [2] | MTS CELL KILL DATA (% INHIBITION) DLD-1 [3] | MTS CELL KILL DATA (% INHIBITION) PACA-2 [4] | MTS CELL KILL DATA (% INHIBITION) PC-3 [5] | MTS CELL KILL DATA (% INHIBITION) MDA-MB [6] |
| --- | --- | --- | --- | --- | --- | --- |
| CCCC(C)CCN1C(=O)c2cnc3[nH]ncc3c2C1=O (stereo not drawn) [Example 114, 7-(3-methylhexyl)pyrazolo[3,4-b]pyrrolo[3,4-d]pyridine-6,8(3H,7H)-dione] | C (C = <50% INHIBITION) | C (C = <50% INHIBITION) | C (C = <50% INHIBITION) | C (C = <50% INHIBITION) | B (B = 50-79% INHIBITION) | A (A = 80-100% INHIBITION) |
| Cc1c(C)c(C)c(CN2C(=O)c3cnc4[nH]ncc4c3C2=O)c(C)c1C [Example 8, 7-(pentamethylbenzyl)pyrazolo[3,4-b]pyrrolo[3,4-d]pyridine-6,8(3H,7H)-dione] | C (C = <50% INHIBITION) | C (C = <50% INHIBITION) | C (C = <50% INHIBITION) | C (C = <50% INHIBITION) | A (A = 80-100% INHIBITION) | B (B = 50-79% INHIBITION) |
| CSc1cccc(-c2n[nH]c3ncc4c(c23)C(=O)N(CCc2ccccc2)C4=O)c1 [Example 159, 1-[3-(methylsulfanyl)phenyl]-7-(2-phenylethyl)pyrazolo[3,4-b]pyrrolo[3,4-d]pyridine-6,8(3H,7H)-dione] | A (A = 80-100% INHIBITION) | A (A = 80-100% INHIBITION) | A (A = 80-100% INHIBITION) | A (A = 80-100% INHIBITION) | A (A = 80-100% INHIBITION) | A (A = 80-100% INHIBITION) |
| Cc1cccc(CCN2C(=O)c3cnc4[nH]ncc4c3C2=O)c1 [Example 86, 7-[2-(3-methylphenyl)ethyl]pyrazolo[3,4-b]pyrrolo[3,4-d]pyridine-6,8(3H,7H)-dione] | A (A = 80-100% INHIBITION) | C (C = <50% INHIBITION) | C (C = <50% INHIBITION) | C (C = <50% INHIBITION) | A (A = 80-100% INHIBITION) | A (A = 80-100% INHIBITION) |
| O=C1c2cnc3[nH]nc(-c4cc5ccccc5o4)c3c2C(=O)N1CCc1ccccc1 [Example 158, 1-(1-benzofuran-2-yl)-7-(2-phenylethyl)pyrazolo[3,4-b]pyrrolo[3,4-d]pyridine-6,8(3H,7H)-dione] | A (A = 80-100% INHIBITION) | A (A = 80-100% INHIBITION) | B (B = 50-79% INHIBITION) | C (C = <50% INHIBITION) | B (B = 50-79% INHIBITION) | B (B = 50-79% INHIBITION) |
| COc1cc(Cl)ccc1CN1C(=O)c2cnc3[nH]ncc3c2C1=O [Example 33, 7-(4-chloro-2-methoxybenzyl)pyrazolo[3,4-b]pyrrolo[3,4-d]pyridine-6,8(3H,7H)-dione] | C (C = <50% INHIBITION) | C (C = <50% INHIBITION) | C (C = <50% INHIBITION) | C (C = <50% INHIBITION) | C (C = <50% INHIBITION) | A (A = 80-100% INHIBITION) |
| NC(=O)c1ccc(-c2n[nH]c3ncc4c(c23)C(=O)N(CCc2ccccc2)C4=O)cc1 [Example 160, 4-[6,8-dioxo-7-(2-phenylethyl)-3,6,7,8-tetrahydropyrazolo[3,4-b]pyrrolo[3,4-d]pyridin-1-yl]benzamide] | A (A = 80-100% INHIBITION) | B (B = 50-79% INHIBITION) | A (A = 80-100% INHIBITION) | A (A = 80-100% INHIBITION) | A (A = 80-100% INHIBITION) | A (A = 80-100% INHIBITION) |
| CC(C)(C)c1ccc(CN2C(=O)c3cnc4[nH]ncc4c3C2=O)cc1 [Example 47, 7-(4-tert-butylbenzyl)pyrazolo[3,4-b]pyrrolo[3,4-d]pyridine-6,8(3H,7H)-dione,] | C (C = <50% INHIBITION) | C (C = <50% INHIBITION) | C (C = <50% INHIBITION) | C (C = <50% INHIBITION) | C (C = <50% INHIBITION) | C (C = <50% INHIBITION) |
| C[C@H](CN1C(=O)c2cnc3[nH]ncc3c2C1=O)c1ccccc1 [Example 121, 7-[(2S)-2-phenylpropyl]pyrazolo[3,4-b]pyrrolo[3,4-d]pyridine-6,8(3H,7H)-dione] | C (C = <50% INHIBITION) | C (C = <50% INHIBITION) | C (C = <50% INHIBITION) | C (C = <50% INHIBITION) | A (A = 80-100% INHIBITION) | B (B = 50-79% INHIBITION) |
| Cc1cccc(N(CCC#N)CCN2C(=O)c3cnc4[nH]ncc4c3C2=O)c1 [Example 134, 3-{[2-(6,8-dioxo-6,8-dihydropyrazolo[3,4-b]pyrrolo[3,4-d]pyridin-7(3H)-yl)ethyl](3-methylphenyl)amino}propanenitrile] | C (C = <50% INHIBITION) | C (C = <50% INHIBITION) | C (C = <50% INHIBITION) | C (C = <50% INHIBITION) | C (C = <50% INHIBITION) | C (C = <50% INHIBITION) |
| CC(C)(C)c1ccc(-c2n[nH]c3ncc4c(c23)C(=O)N(CCc2ccccc2)C4=O)cc1 [Example 166, 1-(4-tert-butylphenyl)-7-(2-phenylethyl)pyrazolo[3,4-b]pyrrolo[3,4-d]pyridine-6,8(3H,7H)-dione] | C (C = <50% INHIBITION) | C (C = <50% INHIBITION) | A (A = 80-100% INHIBITION) | B (B = 50-79% INHIBITION) | C (C = <50% INHIBITION) | A (A = 80-100% INHIBITION) |
| O=C1c2cnc3[nH]ncc3c2C(=O)N1Cc1cc(Cl)ccc1Cl [Example 61, 7-(2,5-dichlorobenzyl)pyrazolo[3,4-b]pyrrolo[3,4-d]pyridine-6,8(3H,7H)-dione] | B (B = 50-79% INHIBITION) | C (C = <50% INHIBITION) | B (B = 50-79% INHIBITION) | C (C = <50% INHIBITION) | C (C = <50% INHIBITION) | A (A = 80-100% INHIBITION) |
